The source of these data is patent US7425572B2, “Use of dioxindoindazoles and dioxoloindazoles for treating glaucoma” (Alcon, Inc., priority 2004, dated 2008).

The target in data set [1] is T1, 5-HT2 receptor (A7r5 rat vascular smooth muscle cells) (Rattus norvegicus, UniProt P14842).
T1 construct: endogenous in cells; host or cells: A7r5 rat vascular smooth muscle cells
Description: 5-HT2 functional assay: [Ca2+]i mobilization (FLIPR). The class given is cell-based. The conditions noted are these: for EC50: [Ca2+]i mobilization; for Emax: percentage of maximum 5-HT-induced response, read-out: Efficacy (Emax, %). Here is the method:
Method 2: 5-HT2 Functional Assay: [Ca^2+]i Mobilization
The receptor-mediated mobilization on intracellular calcium ([Ca^2+]i) was studied using the Fluorescence Imaging Plate Reader (FLIPR) instrument. Rat vascular smooth muscle cells, A7r5, were grown in a normal media of DMEM/10% FBS and 10 μg/mL gentamycin. Confluent cell monolayers were trypsinized, pelleted, and re-suspended in normal media. Cells were seeded in a […] volume at a density of 20,000 cells/well in a black wall, 96-well tissue culture plate and grown for 2 days.
On the day of the experiment, one vial of FLIPR Calcium Assay Kit dye was re-suspended in 50 mL of a FLIPR buffer consisting of Hank's Balanced Salt Solution (HBSS), 20 mM HEPES, and 2.5 mM probenecid, pH 7.4. Cells were loaded with the calcium-sensitive dye by addition of an equal volume (50 μL) to each well of the 96-well plate and incubated with dye for 1 h at 23° C.
Typically, test compounds were stored at 25 μM in 50% DMSO/50% Ethanol solvent. Compounds were diluted 1:50 in 20% DMSO/20% Ethanol. For “hit” screening, compounds were further diluted 1:10 in FLIPR buffer and tested at a final concentration of 10 μM. For dose-response experiments, compounds were diluted 1:50 in FLIPR buffer and serially diluted 1:10 to give a 5- or 8-point dose-response curve.
The compound plate and cell plate were placed in the FLIPR instrument. At the beginning of an experimental run, a signal test was performed to check the basal fluorescence signal from the dye-loaded cells and the uniformity of the signal across the plate. The basal fluorescence was adjusted between 8000-12000 counts by modifying the exposure time, the camera F-stop, or the laser power. Instrument settings for a typical assay were the following: laser power 0.3-0.6 W, camera F-stop F/2, and exposure time 0.4 sec. An aliquot (25 μL) of the test compound was added to the existing 100 μL dye-loaded cells at a dispensing speed of 50 μL/sec. Fluorescence data were collected in real-time at 1.0 sec intervals for the first 60 secs and at 6.0 sec intervals for an additional 120 secs. Responses were measured as peak fluorescence intensity minus basal and where appropriate were expressed as a percentage of a maximum 5-HT-induced response. When the compounds were tested as antagonists against 10 μM 5-HT, they were incubated with the cells for 15 minutes prior to the addition of 5-HT.

Data set [2] deals with lasered (hypertensive) eyes of conscious cynomolgus monkeys. Put plainly: Acute IOP response in lasered (hypertensive) eyes of conscious cynomolgus monkeys. The class given is in vivo. The conditions noted are these: lasered monkey eye. The protocol:
Method 3: Acute IOP Response in Lasered (Hypertensive) Eyes of Conscious Cynomolgus Monkeys
Intraocular pressure (IOP) can be determined with an Alcon Pneumatonometer after light corneal anesthesia with 0.1% proparacaine. Eyes are washed with saline after each measurement. After a baseline IOP measurement, test compound is instilled in one 30 μL aliquot to the right eyes only of nine cynomolgus monkeys. Vehicle is instilled in the right eyes of six additional animals. Subsequent IOP measurements are taken at 1, 3, and 6 hours.
The above method was used to determine the IOP lowering efficacy of the compound of Example 1 (dosed at a concentration of 300 μg).

Setting [3] is: 1 hr after topical dose of 300 μg.
Setting [4] is: 3 hrs after topical dose of 300 μg.
Where [5] appears, read: 6 hrs after topical dose of 300 μg.

Where a name gives a salt, the structure may show the parent alone.

T1 sequence (P14842 whole entry): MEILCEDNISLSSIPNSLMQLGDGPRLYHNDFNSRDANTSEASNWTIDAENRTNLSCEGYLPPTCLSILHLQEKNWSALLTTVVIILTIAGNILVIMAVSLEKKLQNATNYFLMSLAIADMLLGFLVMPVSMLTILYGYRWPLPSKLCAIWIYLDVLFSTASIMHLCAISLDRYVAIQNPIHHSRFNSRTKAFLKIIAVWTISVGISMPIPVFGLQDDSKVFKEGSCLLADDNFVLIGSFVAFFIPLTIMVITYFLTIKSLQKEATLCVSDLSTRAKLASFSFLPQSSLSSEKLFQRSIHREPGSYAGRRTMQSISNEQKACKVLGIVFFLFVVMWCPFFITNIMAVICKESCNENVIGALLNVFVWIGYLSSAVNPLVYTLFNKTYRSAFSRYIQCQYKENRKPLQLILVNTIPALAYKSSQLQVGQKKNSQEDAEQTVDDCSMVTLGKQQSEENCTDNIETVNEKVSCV

What is called melting point is the temperature of the solid-liquid transition. As to `C[C@H](N)Cn1ncc2ccc3c(c21)O[C@@H](CO)CO3` (as salt: hydrochloride) [Example 1, [(S)-1-((S)-2-Amino-propyl)-7,8-dihydro-1H-[1,4]dioxino[2,3-g]indazol-8-yl]-methanol hydrochloride], the melting point lay in the range of 202 to 203 °C.
As a reminder, the EC50 is the concentration that produces a half-maximal response. As a reminder, the Emax is the size of the effect at its maximum, as opposed to the concentration needed. In the case of `C[C@H](N)Cn1ncc2ccc3c(c21)O[C@@H](CO)CO3` [Example 1, [(S)-1-((S)-2-Amino-propyl)-7,8-dihydro-1H-[1,4]dioxino[2,3-g]indazol-8-yl]-methanol hydrochloride], in data set [1], the EC50 amounted to 31 nM and the Emax came to 39%. For the same compound, in data set [2] (setting [3]), the IOP % change is on record as −4.3% and the “IOP Change mmHg” value was −2.2 mmHg. Also, in data set [2] (setting [4]), the IOP % change is given as −15.8% and the “IOP Change mmHg” value was −6.8 mmHg. Also, in data set [2] (setting [5]), the IOP % change was −23.6% and the “IOP Change mmHg” value is recorded as −9.6 mmHg.
`C[C@H](N)Cn1ncc2ccc3c(c21)O[C@H](CO)CO3.Cl` [Example 2, [(R)-1-((S)-2-Aminopropyl)-7,8-dihydro-1H-[1,4]dioxino[2,3-g]indazol-8-yl]-methanol hydrochloride] returned a melting point of 112 to 116 °C. Moreover, in data set [1], a half-maximal response (EC50) required 53 nM and the Emax came out at 77%.
As for `C[C@H](N)Cn1ncc2ccc3c(c21)OCCO3` [Example 3, (S)-2-(7,8-Dihydro-[1,4]dioxino[2,3-g]indazol-1-yl)-1-methyl-ethylamine hydrochloride], in data set [1], a half-maximal effect (EC50) was put at 27 nM and the Emax came to 92%.
`C[C@H](N)Cn1ncc2ccc3c(c21)O[C@@H](CNS(C)(=O)=O)CO3.Cl` [Example 4, N-[(S)-1-((S)-2-Amino-propyl)-7,8-dihydro-1H-[1,4]dioxino[2,3-g]indazol-8-ylmethyl]-methanesulfonamide hydrochloride]: the melting point was in the range of 235 to 236 °C. Moreover, in data set [1], the response was half-maximal at 78 nM (EC50) and the maximal effect (Emax) was 81%.
Taken in the same sequence, the figures for `CCS(=O)(=O)NC[C@H]1COc2ccc3cnn(C[C@H](C)N)c3c2O1.Cl` [Example 5, Ethanesulfonic acid [(S)-1-((S)-2-amino-propyl)-7,8-dihydro-1H-[1,4]dioxino[2,3-g]indazol-8-ylmethyl]-amide hydrochloride] were 243 to 244 °C, 67 nM and 82%.
For the compound `CC(C)C(=O)NC[C@H]1COc2ccc3cnn(C[C@H](C)N)c3c2O1` [Example 6, N-[(S)-1-((S)-2-Amino-propyl)-7,8-dihydro-1H-[1,4]dioxino[2,3-g]indazol-8-ylmethyl]-isobutyramide hydrochloride], in data set [1], the EC50 came out at 125 nM and the Emax worked out at 59%.
`COC(=O)NC[C@H]1COc2ccc3cnn(C[C@H](C)N)c3c2O1.Cl` [Example 7, [(S)-1-((S)-2-Amino-propyl)-7,8-dihydro-1H-[1,4]dioxino[2,3-g]indazol-8-ylmethyl]-carbamic acid methyl ester hydrochloride]: the melting point was in the range of 265 to 266 °C. Besides, in data set [1], the response was half-maximal at 92 nM (EC50) and the Emax is 66%.
In the case of `C[C@H](N)Cn1ncc2ccc3c(c21)O[C@@H](CN)CO3` [Example 8, (S)-2-((S)-8-Aminomethyl-7,8-dihydro-[1,4]dioxino[2,3-g]indazol-1-yl)-1-methyl-ethylamine hydrochloride], in data set [1], the EC50 was found to be 232 nM and the Emax was 54%.
For `COC(=O)NC[C@@H]1COc2ccc3cnn(C[C@H](C)N)c3c2O1` [Example 9, [(R)-1-((S)-2-Amino-propyl)-7,8-dihydro-1H-[1,4]dioxino[2,3-g]indazol-8-ylmethyl]-carbamic acid methyl ester hydrochloride], in data set [1], the concentration for a half-maximal effect (EC50) is 106 nM and the Emax worked out at 44%.
